Literature values as cited in PubChem BioAssay AID1259410 (Chemical Carcinogenesis Research Information System (CCRIS), 2018).

System: rodent tumor promotion studies, tumor incidence
Test: CCRIS tumor promotion studies

In the case of COc1cc(NS(=O)(=O)c2ccc(N)cc2)nc(OC)n1, the outcome (Carcinogen: Kojic acid, 501-30-4, Doses [Carcinogen]: 0.02, 0.2, 2% in diet for 8 wk before administration of promoter, Doses [Carcinogen]: 0.02, 0.2, 2% in diet for 8 wk before administration of promoter, Doses [Promoter]: 0.1% in drinking water from 8 wk to 31 wk of experiment, study duration 44 wk, Route [Carcinogen]: Oral, Route [Promoter]: Oral, Species: Rat, Strain/Sex: F344//Male (20/experimental group (10 killed at 31 wk & 10 killed at 44 wk); 15/controls)) is given as “thyroid: negative for tumors” and the outcome (Carcinogen: N-bis(2-hydroxypropyl)nitrosamine, 53609-64-6, Doses [Carcinogen]: 700 mg/kg, 4 injections administered over 8 wk before promoter, Doses [Promoter]: 0.1% in drinking water from 8 wk to 31 wk of experiment, study duration 44 wk, Route [Carcinogen]: Subcutaneous, Route [Promoter]: Oral, Species: Rat, Strain/Sex: F344//Male (20/experimental group (10 killed at 31 wk & 10 killed at 44 wk); 15/controls)) is given as “thyroid: adenoma and carcinoma at both 31 and 44 wk”.
For CC(C)(C)CC(C)(C)c1ccc(O)cc1, the outcome (Carcinogen: N-ETHYL-N'-NITRO-N-NITROSOGUANIDINE, 4245-77-6, Doses [Carcinogen]: 20 MG/KG BW ONCE AT 3 MO OF AGE, Doses [Promoter]: 100 MG/KG BW IN DMSO BEGINNING AT 3 MO OF AGE, 5X/WK FOR FIRST 2 WK, 3X/WK FOR NEXT 11 WK, 2X/WK FOR STUDY DURATION (STU, Route [Carcinogen]: INTRAUTERINE, Route [Promoter]: SUBCUTANEOUS, Species: RAT, Strain/Sex: DONRYU/FEMALE) is given as “uterus: adenocarcinoma”, the outcome (Doses [Carcinogen]: 20 MG/KG ONCE AT 11 WK OF AGE, Doses [Promoter]: 0, 100 MG/KG/D IN DMSO, EVERY OTHER DAY POSTNATAL DAYS 1 THROUGH 5 (STUDY DURATION: 15 MO), Route [Carcinogen]: INTRAUTERINE, Route [Promoter]: SUBCUTANEOUS, Species: RAT, Strain/Sex: DONRYU/FEMALE) is given as “uterus: adenocarcinoma” and the outcome (Doses [Carcinogen]: 20 MG/KG ONCE AT 11 WK OF AGE, Doses [Promoter]: 0, 100 MG/KG/D IN DMSO, EVERY OTHER DAY POSTNATAL DAYS 1 THROUGH 15 (STUDY DURATION: 15 MO), Route [Carcinogen]: INTRAUTERINE, Route [Promoter]: SUBCUTANEOUS, Species: RAT, Strain/Sex: DONRYU/FEMALE) is given as “uterus: adenocarcinoma”.
In the case of CCCCCCCCCCCC(=O)OCCOC[C@@H](OCCO)[C@H]1OC[C@@H](OCCO)[C@H]1OCCO, the outcome (Carcinogen: 7,12-DIMETHYLBENZ(A)ANTHRACENE, Doses [Carcinogen]: TOP, Route [Carcinogen]: DERMAL, Route [Promoter]: DERMAL, Species: MOUSE, Strain/Sex: MALE) is given as “integumentary system (skin)”.
In the case of Cc1cc(=O)[nH]c(=S)[nH]1, the outcome (Carcinogen: 2-(ACETYLAMINO)FLUORINE, Doses [Carcinogen]: IG, Doses [Promoter]: IN DIET, Route [Carcinogen]: GAVAGE, Route [Promoter]: ORAL, Species: RAT, Strain/Sex: MALE,FEMALE) is listed as “thyroid gland”.
For CC(=O)Oc1ccc(C(c2ccc(OC(C)=O)cc2)c2ccccn2)cc1, the outcome (Carcinogen: AZOXYMETHANE, 25843-45-2, Doses [Carcinogen]: 15 MG/KG TWICE ON DAYS 1 AND 5 OF TREATMENT, Doses [Promoter]: 0, 4.3, 43 MG/KG/D 6 D/WK FOR 13 WK (STUDY DURATION: 13 WK), Doses [Promoter]: 0, 4.3, 43 MG/KG/D 6 D/WK FOR 13 WK (STUDY DURATION: 13 WK), Route [Carcinogen]: INTRAPERITONEAL, Route [Promoter]: GAVAGE, Species: RAT, Strain/Sex: WISTAR/MALE) is given as “colon: adenocarcinoma”.
For COC(=O)[C@H]1[C@@H](OC(=O)c2ccccc2)C[C@@H]2CC[C@H]1N2C, the outcome (Carcinogen: MURINE SARCOMA VIRUS, Doses [Promoter]: 0, 0.5 MG/KG/D FOR 3 D BEGINNING ON DAY OF VIRUS INJECTION (STUDY DURATION: 20 D), Route [Carcinogen]: INTRAMUSCULAR, Route [Promoter]: SUBCUTANEOUS, Species: MOUSE, Strain/Sex: BALB/FEMALE) is listed as “injection site: tumor”.
For Clc1cc(Cl)c(-c2ccc(Cl)c(Cl)c2Cl)cc1Cl, the outcome (Carcinogen: N-NITROSODIMETHYLAMINE, 62-75-9, Doses [Carcinogen]: 5 MG/KG IN SALINE ON POSTNATAL DAY 4, Doses [Promoter]: 0, 20 MG/KG IN OLIVE OIL ON POSTNATAL DAY 8 (STUDY DURATION: 16 WK), Route [Carcinogen]: INTRAPERITONEAL, Route [Promoter]: GAVAGE, Species: MOUSE, Strain/Sex: SWISS/MALE, FEMALE) is given as “lung: tumor”.
For CNc1ccccc1C(=O)O[C@@H]1[C@@H](C)[C@@]2(O)[C@@H](C=C(CO)C[C@]3(O)C(=O)C(C)=C[C@@H]23)[C@@H]2C(C)(C)[C@]12OC(C)=O, the outcome (Carcinogen: 7,12-DIMETHYLBENZ[A]ANTHRACENE, 57-97-6, Doses [Carcinogen]: 10 NMOL ONCE, Doses [Promoter]: 0, 3.3 NMOL 2/WK FOR 20 WK (STUDY DURATION: 20 WK), Route [Carcinogen]: DERMAL, Route [Promoter]: DERMAL, Species: MOUSE, Strain/Sex: SENCAR) is listed as “skin: papilloma”.
For Clc1ccc(-c2ccc(Cl)c(Cl)c2)cc1Cl, the outcome (Carcinogen: 7,12-DIMETHYLBENZ[A]ANTHRACENE, 57-97-6, Doses [Carcinogen]: 10 MG IN 0.5 ML CORN OIL ONCE, Doses [Promoter]: 0, 10 MG/KG BW ONCE AT TIME OF CARCINOGEN DOSE THEN 500 UG/G OF FAT IN DIET FOR 1 WK ADMINISTERED TO RATS FED HIGH-FAT (, Route [Carcinogen]: GAVAGE, Route [Promoter]: GAVAGE, ORAL, Species: RAT, Strain/Sex: SPRAGUE-DAWLEY/FEMALE) is listed as “mammary gland: tumor” and the outcome (Carcinogen: 7,12-DIMETHYLBENZ[A]ANTHRACENE, 57-97-6, Doses [Carcinogen]: 10 MG IN 0.5 ML CORN OIL ONCE, Doses [Promoter]: 0, 10 MG/KG BW ONCE AT TIME OF CARCINOGEN DOSE THEN 500 UG/G OF FAT IN DIET FOR 1 WK ADMINISTERED TO RATS FED LOW FAT (5, Route [Carcinogen]: GAVAGE, Route [Promoter]: GAVAGE, ORAL, Species: RAT, Strain/Sex: SPRAGUE-DAWLEY/FEMALE) is listed as “mammary gland: tumor”.
For COC[C@@H]([C@H](O)[C@H](O)C(=O)NCC[C@H](C)c1nc(/C=C/C[C@@H]2O[C@]3(C[C@@H](O)[C@@H]2C)O[C@H]([C@H](C[C@H](O)[C@H](C)[C@H](O)[C@H](C)/C=C(C)/C(C)=C/C=C/C(C)=C\C#N)OC)[C@H](OP(=O)(O)O)C3(C)C)co1)N(C)C, the outcome (Carcinogen: 7,12-DIMETHYLBENZ[A]ANTHRACENE, 57-97-6, Doses [Carcinogen]: 100 UG IN 0.1 ML ACETONE TO THE DORSAL SKIN ONCE, Doses [Promoter]: 0, 0.1, 1 UG IN 0.1 ML ACETONE TO THE DORSAL SKIN 2/WK FOR 29 WK BEGINNING 1 WK POST CARCINOGEN DOSE (STUDY DURATION: 30, Doses [Promoter]: 0, 0.1, 1 UG IN 0.1 ML ACETONE TO THE DORSAL SKIN 2/WK FOR 29 WK BEGINNING 1 WK POST CARCINOGEN DOSE (STUDY DURATION: 30, Route [Carcinogen]: DERMAL, Route [Promoter]: DERMAL, Species: MOUSE, Strain/Sex: CD-1/FEMALE) is given as “skin: papilloma”.
In the case of C1COCCO1, the outcome (Carcinogen: 7,12-DIMETHYLBENZ(A)ANTHRACENE, Doses [Carcinogen]: TOP, Route [Carcinogen]: DERMAL, Route [Promoter]: DERMAL, Species: MOUSE, Strain/Sex: MALE,FEMALE) is listed as “integumentary system (skin)”.
